These results are taken from patent publication US5188950A, “Method of preparing HIV protease inhibitors” (Merck & Co., Inc., priority 1992, dated 1993).

Molecules are shown by their SMILES. pIC50: −log10 of the molar value. “And” between values parts separate entries of the source, which are not always exact repeats. Identical values can stand only once.

The nature of series [1]: Biotransformation of L-689,502 by rat liver slices. The format is in vitro ADME. The conditions noted are these: for metabolite share of the total metabolites: rat liver slices incubated with L-689,502, pH 7.4, 37° C., % of the total metabolites. Here is the method: L-689,502 (5.65 μmole) was incubated at pH 7.4, 37° C., with rat liver slices (1 cm wide, 200-300μ 3.7 g) in 100 ml of Williams' Medium E (composition described in Sigma commercial circular, pages 1-5, herein incorporated by reference for this purpose). A gradual increase in the metabolites in an organic extract of the medium was observed over a period of 5 hours when ~31% of .he drug was metabolized. Three of the major metabolites M1 (6.1% of the total metabolites) and M2 (6.3%) and M4 (12.1%) were characterized by ^1 H-NMR and FAB/Mass spectroscopies. Exact mass measurements, by high resolution FAB/MS, for M1 and M2 gave a molecular ion at m/z 690.375305, which computed to an empirical formula of C39 H52 N3 O8 for the protonated form. The M4 peak was also matched with a synthetic standard by HPLC, MS and NMR.

Series [2] has as its target T1, HIV protease (Human immunodeficiency virus type 1 group M subtype B, UniProt P12497).
T1 construct: the protease expressed in Escherichia coli; made in house; host or cells: Escherichia coli
As to the kind of experiment: Inhibition of microbial expressed viral protease (peptide substrate cleavage, HPLC of products). It counts as biochemical. As to conditions: estimated activities; compounds as isolated from rat liver slices; pH 5.5, 2 hours at 36° C., 283 pM protease. Here is the method: Inhibition studies of the reaction of the protease expressed in Escherichia coli with a peptide substrate [Val-Ser-Gln-Asn-(betanapthyl)Ala-Pro-Ile-Val, 0.665 mg/mL at the time the reaction is initiated] were carried out. Aliquots of 40 μl of substrate in substrate buffer (60 mM Na acetate, pH 5.5, in 0.117% BSA) were combined with 10 μl aliquots of various concentrations of inhibitor. The reaction was initiated by the addition of 10 μl of 1.7 nM protease in a solution of 0.05M Na acetate, pH 5.5, in 10% glycerol, 1 mM DTT, 1 mM EDTA, and 64 μM octoxynol-9.5 to yield a final concentration of 283 pM protease. Incubation proceeded for 2 hours at 36° C. The reaction was quenched with 75 ul of 5% phosphoric acid. Products of the reaction were separated by HPLC. The extent of inhibition of the reaction was determined from the peak heights of the products.

Series [3] in a line: Biotransformation of L-689,502 by dog liver slices. The format is in vitro ADME. The conditions noted are these: dog liver slices incubated with L-689,502; for metabolite share of the total metabolites: % of the total metabolites.

Consider `CC(C)(C)OC(=O)N[C@@H](Cc1ccccc1)[C@@H](O)C[C@@H](Cc1ccc(OCCN2CCOCC2)cc1)C(=O)N[C@H]1c2ccccc2C[C@H]1O` [L-689,502, N-(cis-2(R)-hydroxy-1(S)-indanyl)-5(S)-(1,1-dimethylethoxycarbonylamino)-4(S)-hydroxy-6-phenyl-2(R)-[(4-(2-(4-morpholinyl)ethoxy)phenyl)methyl]-hexanamide], for which the metabolised at 5 h, 56.5 µM in series [1] (over 5 hours, pH 7.4, 37° C., rat liver slices, 5.65 μmole in 100 ml Williams' Medium E, read-out: drug metabolized) is about 31%. The pIC50 in series [2] is 9.03 and 9.02.
With `CC(C)(C)OC(=O)N[C@@H](Cc1ccccc1)[C@@H](O)C[C@@H](Cc1ccc(OCCN2CCOCC2)cc1)C(=O)N[C@H]1c2ccccc2[C@H](O)[C@H]1O` [M1], the “metabolite share of the total metabolites” value (“metabolite share” below) in series [1] worked out at 6.1%; in series [3] it was 13.1%. The pIC50 in series [2] is 8.57.
As to `CC(C)(C)OC(=O)N[C@@H](Cc1ccccc1)[C@@H](O)C[C@@H](Cc1ccc(OCCN2CCOCC2)cc1)C(=O)N[C@H]1c2cccc(O)c2C[C@H]1O` [M2], the “metabolite share” value in series [1] was found to be 6.3%; in series [3], 1.6%. Besides, the negative logarithm of the IC50 (pIC50) in series [2] is 8.89.
For `CC(C)(C)OC(=O)N[C@@H](Cc1ccccc1)[C@@H](O)C[C@@H](Cc1ccc(OCCN2CCOCC2=O)cc1)C(=O)N[C@H]1c2ccccc2C[C@H]1O` [M4], in series [1], the “metabolite share” value is 12.1%. The “amount of metabolite peak (in words)” value in series [3] (HPLC) is “a small amount”. In addition, the negative logarithm of the IC50 (pIC50) in series [2] was about 9.30.
